Experimental data from patent US7605168B2 (Plexxikon, Inc., priority 2004, dated 2009).

How the values were obtained:
[1] = biological target: T1, PDE4D: catalytic domain S316-V692 (Homo sapiens, UniProt Q08499); assay: PDE4 IC50 determination by Scintillation Proximity Assay (SPA), PDE4D catalytic domain; type: biochemical; settings: [3H]cAMP SPA, 30 min at 30° C.
T1 construct: pET15S PDE4D S316-V692-X; His6 (N, cleaved yes); thrombin cleavage site (N, cleaved yes); made in house; host or cells: E. coli BL21 (DE3) RIL
Experimental: IC50s were determined by Scintillation Proximity Assay (SPA). The principle of the assay is based on the fact that cAMP, the PDE4 substrate, binds weakly to Yittrium Silicate SPA beads, whereas AMP, the product of PDE4 hydrolysis binds strongly. Thus, the extent of PDE4 hydrolysis of a sample of [^3H]cAMP can be measured because only the [^3H]AMP produced by PDE4 hydrolysis will bind to the SPA beads and produce a scintillation signal.
[…] Enzyme was stored in 50% glycerol at −20°. See Example 144.
Compounds tested (see Tables 5 for compounds and results) were 3-fold serially diluted 11 times in DMSO from a starting concentration of 4 mM or 40 μM, depending on compound potency. 1 μl of each dilution was transferred into duplicate wells of a white polystyrene 384-well assay plate (Corning #3710). In addition to the compound dilutions, each assay plate contained control wells with 1 μl of DMSO (to define 0% enzyme inhibition) or 1 μl of 200 μM roflumilast (to define 100% enzyme inhibition). Using a Beckman FX robot, 10 μl of [^3H] cAMP (Amersham TRK559) at […] in assay buffer (50 mM Tris, pH 7.5; 8.3 mM MgCl; 1.7 mM EGTA; 0.01% BSA) was transferred to each assay well. Next, 10 μl of PDE4 enzyme in assay buffer was added and the plates were shaken for 30 s. at 1000 rpm to start the cAMP hydrolysis reaction. The concentrations of enzyme used were: PDE4B, 80 ng/ml; PDE4D, 4 ng/ml; PDE4B2, 2.5 μl of 50% glycerol stock/ml; PDE4D5 0.083 μl of 50% glycerol stock/ml. Assay plates were covered and incubated for 30 min. at 30° C. Reactions were stopped by robotic addition of 10 μl of 5 mg/ml SPA beads (Amersham RPNQ0013) in 18 mM ZnSO4. The assay plates were covered with clear plastic film, centrifuged for 1 min. at 1000 RPM to settle the SPA beads, and counted using a Wallac TriLux scintillation counter. IC50's were calculated from the raw assay data by non-linear regression curve fitting using the Assay Explorer software package from MDL.

[2] = test system: TNF-α release from whole blood cultures stimulated with LPS; assay: IC50 by TNF alpha production upon stimulation of whole blood cultures with LPS; type: cell-based; settings: human whole blood (buffy coat) culture, 100 ng/ml LPS, 4 hours; read-out: h TNFα IC50
Outline: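 Human buffy coat, diluted with 7 volumes of RPMI/2.5% heat-inactivated FBS, was preincubated with compound (8-point 1:3 series) for 1 h at 37 °C. It was then stimulated with 100 ng/ml LPS (final) for 4 h. Supernatant TNF-α was measured by sandwich ELISA at 450 nm, and IC50 was set between DMSO (0%) and PDE4-inhibitor (100%) controls.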

[3] = biological target: T2, PDE4D5: full-length human PDE4D5 isozyme (Homo sapiens, UniProt Q08499); assay: PDE4 IC50 determination by Scintillation Proximity Assay (SPA), full-length PDE4D5; type: biochemical; settings: cell lysate, [3H]cAMP SPA
T2 construct: made in house; host or cells: baculovirus infected insect cells (pFastBacHT)
Outline: (§1)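 Unpurified enzyme from cell lysates (PDE4B2 2.5 μl, PDE4D5 0.083 μl of 50% glycerol stock/ml) hydrolysing [3H]cAMP in 50 mM Tris pH 7.5, 8.3 mM MgCl, 1.7 mM EGTA, 0.01% BSA, 30 min at 30 °C. Stopped with yttrium silicate SPA beads in 18 mM ZnSO4; bead-bound [3H]AMP counted. IC50 by non-linear regression.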

[4] = biological target: T3, PDE4B: catalytic domain of human PDE4B from S152-S528 (Homo sapiens, UniProt Q07343); assay: PDE4 IC50 determination by Scintillation Proximity Assay (SPA), PDE4B catalytic domain; type: biochemical; settings: [3H]cAMP SPA, 30 min at 30° C.
T3 construct: The catalytic domain of human PDE4B from S152-S528; His6 (N, cleaved yes); thrombin cleavage site (N, cleaved yes); made in house; host or cells: E. coli BL21 (DE3) RIL
Outline: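 Human PDE4B catalytic domain (80 ng/ml) hydrolysed [3H]cAMP in 50 mM Tris pH 7.5, 8.3 mM MgCl, 1.7 mM EGTA, 0.01% BSA for 30 min at 30 °C. Reaction was stopped with yttrium silicate SPA beads in 18 mM ZnSO4, and bound [3H]AMP was counted by scintillation. IC50 came from non-linear regression.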

[5] = biological target: T4, PDE4B2: full-length human PDE4B2 isozyme (Homo sapiens, UniProt Q07343); assay: PDE4 IC50 determination by Scintillation Proximity Assay (SPA), full-length PDE4B2; type: biochemical; settings: cell lysate, [3H]cAMP SPA
T4 construct: made in house; host or cells: baculovirus infected insect cells (pFastBacHT)
Outline: as §1

T2 sequence (Q08499 with tags, fused parts or gaps isoform Q08499-6): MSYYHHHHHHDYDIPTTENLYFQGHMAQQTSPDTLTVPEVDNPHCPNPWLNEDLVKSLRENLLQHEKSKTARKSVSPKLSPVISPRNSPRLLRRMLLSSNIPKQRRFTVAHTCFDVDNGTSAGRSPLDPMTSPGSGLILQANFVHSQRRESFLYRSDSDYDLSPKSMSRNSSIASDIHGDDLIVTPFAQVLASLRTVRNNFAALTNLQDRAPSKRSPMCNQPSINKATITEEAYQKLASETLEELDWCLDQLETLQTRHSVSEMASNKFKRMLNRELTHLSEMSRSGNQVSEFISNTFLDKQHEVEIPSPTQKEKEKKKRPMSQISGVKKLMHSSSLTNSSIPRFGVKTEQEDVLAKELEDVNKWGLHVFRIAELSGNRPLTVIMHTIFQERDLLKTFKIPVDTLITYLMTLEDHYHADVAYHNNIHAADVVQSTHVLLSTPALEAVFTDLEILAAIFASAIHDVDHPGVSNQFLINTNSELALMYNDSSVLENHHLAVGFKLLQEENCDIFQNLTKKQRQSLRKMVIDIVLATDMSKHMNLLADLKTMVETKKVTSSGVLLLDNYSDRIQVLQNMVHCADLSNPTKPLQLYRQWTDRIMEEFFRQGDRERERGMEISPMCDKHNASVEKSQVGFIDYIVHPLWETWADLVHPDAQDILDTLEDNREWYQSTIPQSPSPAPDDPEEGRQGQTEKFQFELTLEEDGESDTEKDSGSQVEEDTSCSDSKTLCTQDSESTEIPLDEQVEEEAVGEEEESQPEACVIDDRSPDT
T3 sequence (Q07343 324-700): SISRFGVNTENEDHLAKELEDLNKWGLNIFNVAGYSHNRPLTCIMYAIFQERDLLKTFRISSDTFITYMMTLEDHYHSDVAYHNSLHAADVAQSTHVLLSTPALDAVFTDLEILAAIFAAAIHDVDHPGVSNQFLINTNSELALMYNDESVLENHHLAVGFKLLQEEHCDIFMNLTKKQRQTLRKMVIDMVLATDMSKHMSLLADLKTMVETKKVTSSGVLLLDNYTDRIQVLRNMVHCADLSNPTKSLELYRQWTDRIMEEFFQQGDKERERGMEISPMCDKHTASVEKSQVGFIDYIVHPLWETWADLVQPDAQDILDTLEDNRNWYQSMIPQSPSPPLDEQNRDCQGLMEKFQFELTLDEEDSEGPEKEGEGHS
T1 sequence (Q08499 380-756): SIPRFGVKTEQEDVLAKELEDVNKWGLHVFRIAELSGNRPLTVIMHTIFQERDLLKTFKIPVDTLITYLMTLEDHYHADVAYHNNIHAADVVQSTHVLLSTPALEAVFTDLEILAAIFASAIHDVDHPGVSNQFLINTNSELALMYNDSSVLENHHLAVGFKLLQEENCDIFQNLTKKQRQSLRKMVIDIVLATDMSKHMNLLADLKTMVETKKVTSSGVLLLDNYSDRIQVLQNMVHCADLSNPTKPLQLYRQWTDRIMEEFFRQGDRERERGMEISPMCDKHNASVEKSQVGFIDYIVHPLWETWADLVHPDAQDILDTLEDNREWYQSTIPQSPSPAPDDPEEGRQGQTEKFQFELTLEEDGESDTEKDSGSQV
T4 sequence (Q07343 with tags, fused parts or gaps isoform Q07343-2): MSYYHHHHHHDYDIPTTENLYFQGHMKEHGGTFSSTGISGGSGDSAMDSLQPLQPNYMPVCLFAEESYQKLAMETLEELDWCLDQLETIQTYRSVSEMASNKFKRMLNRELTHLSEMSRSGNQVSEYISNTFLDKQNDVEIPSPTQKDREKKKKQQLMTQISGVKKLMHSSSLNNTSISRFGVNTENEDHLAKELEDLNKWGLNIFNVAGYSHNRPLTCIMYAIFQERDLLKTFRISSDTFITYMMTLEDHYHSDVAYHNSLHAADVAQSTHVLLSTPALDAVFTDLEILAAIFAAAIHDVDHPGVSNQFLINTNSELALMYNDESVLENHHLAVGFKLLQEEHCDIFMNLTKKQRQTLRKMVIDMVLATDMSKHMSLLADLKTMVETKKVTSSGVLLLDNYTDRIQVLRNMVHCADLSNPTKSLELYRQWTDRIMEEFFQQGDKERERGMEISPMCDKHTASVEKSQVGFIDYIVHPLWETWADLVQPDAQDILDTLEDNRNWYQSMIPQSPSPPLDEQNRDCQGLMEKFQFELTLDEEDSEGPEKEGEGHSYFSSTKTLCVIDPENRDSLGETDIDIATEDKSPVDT

Compound: COc1ccc(-c2c[nH]c3ncccc23)cc1OC [Compound 1, 3-(3,4-dimethoxy-phenyl)-1H-pyrrolo[2,3-b]pyridine]
- IC50 [1]: ≤ 10 µM
- IC50 [2]: ≤ 10 µM
- IC50 [3]: < 10 µM
- IC50 [4]: < 10 µM
- IC50 [5]: < 10 µM

Compound: COc1ccc(-c2cn(S(=O)(=O)c3ccccc3)c3ncccc23)cc1OC [Compound 5, 1-benzenesulfonyl-3-(3,4-dimethoxy-phenyl)-1H-pyrrolo[2,3-b]pyridine]
- IC50 [1]: ≤ 10 µM
- IC50 [2]: ≤ 10 µM
- IC50 [3]: < 10 µM
- IC50 [4]: < 10 µM
- IC50 [5]: < 10 µM

Compound: COc1ccc(-c2cn(S(=O)(=O)Cc3ccc(Cl)cc3)c3ncccc23)cc1OC [Compound 17, 1-(4-chloro-phenylmethanesulfonyl)-3-(3,4-dimethoxy-phenyl)-1H-pyrrolo[2,3-b]pyridine]
- IC50 [1]: ≤ 10 µM
- IC50 [2]: ≤ 10 µM
- IC50 [3]: < 10 µM
- IC50 [4]: < 10 µM
- IC50 [5]: < 10 µM

Compound: COc1ccc(-c2cn(S(=O)(=O)Cc3cccc([N+](=O)[O-])c3)c3ncccc23)cc1OC [Compound 18, 3-(3,4-dimethoxy-phenyl)-1-(3-nitro-phenylmethanesulfonyl)-1H-pyrrolo[2,3-b]pyridine]
- IC50 [1]: ≤ 10 µM
- IC50 [2]: ≤ 10 µM
- IC50 [3]: < 10 µM
- IC50 [4]: < 10 µM
- IC50 [5]: < 10 µM

Compound: COc1ccc(-c2cn(S(=O)(=O)c3cc(C)cc4cccnc34)c3ncccc23)cc1OC [Compound 24]
- IC50 [1]: ≤ 10 µM
- IC50 [2]: ≤ 10 µM
- IC50 [3]: < 10 µM
- IC50 [4]: < 10 µM
- IC50 [5]: < 10 µM

Compound: COc1ccc(-c2cn(C(=O)Nc3ccccc3)c3ncccc23)cc1OC [Compound 28, 3-(3,4-Dimethoxy-phenyl)-pyrrolo[2,3-b]pyridine-1-carboxylic acid phenylamide]
- IC50 [1]: ≤ 10 µM
- IC50 [3]: < 10 µM
- IC50 [4]: < 10 µM
- IC50 [5]: < 10 µM

Compound: CCOC(=O)c1cccc(NC(=O)n2cc(-c3ccc(OC)c(OC)c3)c3cccnc32)c1 [Compound 30, 3-[3-(3,4-Dimethoxy-phenyl)-pyrrolo[2,3-b]pyridine-1-carbonyl]-amino-benzoic acid ethyl ester]
- IC50 [1]: ≤ 10 µM
- IC50 [3]: < 10 µM
- IC50 [4]: < 10 µM
- IC50 [5]: < 10 µM

Compound: COc1ccc(-c2cn(C(=O)Nc3ccc(F)c([N+](=O)[O-])c3)c3ncccc23)cc1OC [Compound 31, 3-(3,4-Dimethoxy-phenyl)-pyrrolo[2,3-b]pyridine-1-carboxylic acid (4-fluoro-3-nitro-phenyl)-amide]
- IC50 [1]: ≤ 10 µM
- IC50 [2]: ≤ 10 µM
- IC50 [3]: < 10 µM
- IC50 [4]: < 10 µM
- IC50 [5]: < 10 µM

Compound: COc1cccc(NC(=O)n2cc(-c3ccc(OC)c(OC)c3)c3cccnc32)c1 [Compound 32, 3-(3,4-Dimethoxy-phenyl)-pyrrolo[2,3-b]pyridine-1-carboxylic acid (3-methoxy-phenyl)-amide]
- IC50 [1]: ≤ 10 µM
- IC50 [2]: > 10 µM
- IC50 [3]: < 10 µM
- IC50 [4]: < 10 µM
- IC50 [5]: < 10 µM

Compound: COc1ccc(-c2cn(C(=O)Nc3ccc4c(c3)OCO4)c3ncccc23)cc1OC [Compound 36, 3-(3,4-Dimethoxy-phenyl)-pyrrolo[2,3-b]pyridine-1-carboxylic acidbenzo[1,3]dioxol-5-ylamide]
- IC50 [1]: ≤ 10 µM
- IC50 [2]: > 10 µM
- IC50 [3]: < 10 µM
- IC50 [4]: < 10 µM
- IC50 [5]: < 10 µM

Compound: COc1cccc(NC(=S)n2cc(-c3ccc(OC)c(OC)c3)c3cccnc32)c1 [Compound 42, 3-(3,4-dimethoxy-phenyl)-pyrrolo[2,3-b]pyridine-1-carbothioic acid (3-methoxy-phenyl)-amide]
- IC50 [1]: ≤ 10 µM
- IC50 [2]: > 10 µM
- IC50 [3]: < 10 µM
- IC50 [4]: < 10 µM
- IC50 [5]: < 10 µM

Compound: COc1ccc(-c2ccnc3[nH]ccc23)cc1OC [Compound 50, 4-(3,4-Dimethoxy-phenyl)-1H-pyrrolo[2,3-b]pyridine]
- IC50 [1]: ≤ 10 µM
- IC50 [2]: ≤ 10 µM
- IC50 [3]: < 10 µM
- IC50 [4]: < 10 µM
- IC50 [5]: < 10 µM

Compound: COc1ccc(-c2cn(Cc3cccc([N+](=O)[O-])c3)c3ncccc23)cc1OC [Compound 53, 3-(3,4-Dimethoxy-phenyl)-1-(3-nitro-benzyl)-1H-pyrrolo[2,3-b]pyridine]
- IC50 [1]: ≤ 10 µM
- IC50 [2]: ≤ 10 µM
- IC50 [3]: < 10 µM
- IC50 [4]: < 10 µM
- IC50 [5]: < 10 µM

Compound: COc1ccc(-c2cn(C(=O)c3cccnc3)c3ncccc23)cc1OC [Compound 56, [3-(3,4-Dimethoxy-phenyl)-pyrrolo[2,3-b]pyridin-1-yl]-(3-pyridylyl)-methanone-amide]
- IC50 [1]: ≤ 10 µM
- IC50 [2]: ≤ 10 µM
- IC50 [3]: < 10 µM
- IC50 [4]: < 10 µM
- IC50 [5]: < 10 µM

Compound: COc1ccc(-c2cn(C(=O)c3ccc4c(OC(C)=O)cccc4c3)c3ncccc23)cc1OC [Compound 62, Acetic acid 6-[3-(3,4-dimethoxy-phenyl)-pyrrolo[2,3-b]pyridine-1-carbonyl]-naphthalen-1-yl ester-amide]
- IC50 [1]: ≤ 10 µM
- IC50 [2]: ≤ 10 µM
- IC50 [3]: < 10 µM
- IC50 [4]: < 10 µM
- IC50 [5]: < 10 µM

Compound: COc1ccc(-c2cn(C(=O)c3csc4ccccc34)c3ncccc23)cc1OC [Compound 63, Benzo[b]thiophen-3-yl-[3-(3,4-dimethoxy-phenyl)-pyrrolo[2,3-b]pyridin-1-yl]-methanone]
- IC50 [1]: ≤ 10 µM
- IC50 [2]: ≤ 10 µM
- IC50 [3]: < 10 µM
- IC50 [4]: < 10 µM
- IC50 [5]: < 10 µM

Compound: COc1ccc2c(c1)c(-c1ccc(OC)c(OC3CCCC3)c1)cn2S(=O)(=O)c1cccc2cc(C)cnc12 [Compound 97, 8-[5-Methoxy-3-(3-cyclopentyloxy-4-methoxy-phenyl)-indole-1-sulfonyl]-3-methyl-quinoline]
- IC50 [1]: ≤ 10 µM
- IC50 [3]: > 10 µM
- IC50 [4]: < 10 µM
- IC50 [5]: < 10 µM

Compound: COc1ccc(-c2cn(S(=O)(=O)c3ccccc3)c3ncccc23)cc1OCc1ccccc1 [Compound 103, 1-Benzenesulfonyl-3-(3-benzyloxy-4-methoxy-phenyl)-1H-pyrrolo[2,3-b]pyridine]
- IC50 [1]: ≤ 10 µM
- IC50 [3]: < 10 µM
- IC50 [4]: < 10 µM
- IC50 [5]: < 10 µM

Compound: COc1ccc(-c2cn(Cc3cc(-c4ccccc4)no3)c3ncccc23)cc1OC [Compound 104, 3-(3,4-Dimethoxy-phenyl)-1-(3-phenyl-isoxazol-5-ylmethyl)-1H-pyrrolo[2,3-b]pyridine]
- IC50 [1]: ≤ 10 µM
- IC50 [3]: < 10 µM
- IC50 [4]: < 10 µM
- IC50 [5]: < 10 µM

Compound: COc1ccc(-c2cn(C(=O)c3c(OCC(F)(F)F)ccc4ccccc34)c3ncccc23)cc1OC1CCCC1 [Compound 124, [3-(3-Cyclopentyloxy-4-methoxy-phenyl)-pyrrolo[2,3-b]pyridin-1-yl]-[2-(2,2,2-trifluoro-ethoxy)-naphthalen-1-yl]-methanone]
- IC50 [1]: ≤ 10 µM
- IC50 [3]: < 10 µM
- IC50 [4]: < 10 µM
- IC50 [5]: < 10 µM

Compound: COc1ccc(-c2c(C)[nH]c3ncccc23)cc1OC [Compound 143, 3-(3,4-Dimethoxy-phenyl)-2-methyl-1H-pyrrolo[2,3-b]pyridine]
- IC50 [1]: ≤ 10 µM
- IC50 [4]: < 10 µM
